The target of one assay is human D2 receptor (Homo sapiens (Human), UniProt P14416). Kind of assay: Radioligand binding assay, [3H]-spiperone, human D2 receptor. Conditions: membranes of HEK293 EBNA cells expressing human D2; 0.7 nM [3H]-spiperone. Here is the method:
(§1) HEK293 EBNA cells were transiently transfected with expression plasmids encoding for the human D2 or D3 or for the human 5-HT2A receptor, respectively. The cells were harvested 48 h post-transfection, washed three times with cold PBS and stored at −80° C. prior to use. The pellet was suspended in cold 50 mM Tris-HCl buffer comprising 10 mM EDTA (pH 7.4) and was homogenized with a Polytron (Kinematica AG, Basel, Switzerland) for 20-30 sec at 12.000 rpm. After centrifugation at 48.000×g for 30 min at 4° C., the pellet was resuspended in cold 10 mM Tris-HCl buffer comprising 0.1 mM EDTA (pH 7.4), homogenized, and centrifuged as above. This pellet was further resuspended in a smaller volume of ice cold 10 mM Tris-HCl buffer comprising 0.1 mM EDTA (pH 7.4) and homogenized with a Polytron for 20-30 sec at 12.000 rpm. The protein content of this homogenate was determined with the Bio-Rad (Bradford) Protein Assay (Biorad Laboratories GmbH, München, Germany) according to the instructions of the manufacturer using gamma globulin as the standard. This homogenate was stored at −80° C. in aliquots and thawed immediately prior to use.
(§2) Aliquots of membrane preparations were thawed at RT, resuspended in assay buffer (D2, D3: 50 mM Tris-HCl, 120 mM NaCl, 5 mM MgCl2, 1 mM EDTA, 5 mM KCl, 1.5 mM CaCl2, pH=7.4; 5-HT2A: 50 mM Tris-HCl, 10 mM MgCl2, 1 mM EGTA, pH=7.4), homogenized with a Polytron for 20-30 sec at 12.000 rpm and adjusted to a final concentration of approximately 7.5 μg protein/well (D2, D3) and 15 μg protein/well (5-HT2A), respectively.
(§3) The binding affinity (Ki) of the compounds was determined using radioligand binding. Membranes were incubated in a total volume of 200 μl with a fixed concentration of radioligand (final concentration approximately 0.7 nM [^3H]-spiperone for D2, 0.5 nM [^3H]-spiperone for D3, and 1.1 nM [^3H]-ketanserin for 5-HT2A) and ten concentrations of test compound in ranging between 10 μM-0.1 nM for 1 h at RT. […] The nonspecific binding was determined with equally composed reaction mixtures in the presence of 10 μM unlabelled spiperone. Per well 45 μl of Microscint 40 (Perkin Elmer, Schwerzenbach, Switzerland) was added, plates for sealed, shaken for 20 min and counted for 3 min on a Topcount Microplate Scintillation Counter (Can berra Packard SA, Zürich, Switzerland) with quenching correction.
(§4) The CPM value for each duplicate of a concentration of competing compound was averaged (y1), then the % specific binding was calculated according to the equation (((y1−non-specific)/(total binding−non-specific))×100). Graphs were plotted with the % specific binding using XLfit, a curve fitting program that iteratively plots the data using Levenberg-Marquardt algorithm. […] The affinity constant (K) was calculated using the Cheng-Prusoff equation Ki=(IC50/1+([L]/Kd), where [L] is the concentration of radioligand and Kd is the dissociation constant of the radioligand at the receptor as determined by the saturation isotherm.

The target of another assay is human D3 receptor (Homo sapiens (Human), UniProt P35462). The experiment in a line: Radioligand binding assay, [3H]-spiperone, human D3 receptor. Conditions: membranes of HEK293 EBNA cells expressing human D3; 0.5 nM [3H]-spiperone. Here is the method: as §1, §2, §3
human D3 receptor, sequence (P35462 whole entry): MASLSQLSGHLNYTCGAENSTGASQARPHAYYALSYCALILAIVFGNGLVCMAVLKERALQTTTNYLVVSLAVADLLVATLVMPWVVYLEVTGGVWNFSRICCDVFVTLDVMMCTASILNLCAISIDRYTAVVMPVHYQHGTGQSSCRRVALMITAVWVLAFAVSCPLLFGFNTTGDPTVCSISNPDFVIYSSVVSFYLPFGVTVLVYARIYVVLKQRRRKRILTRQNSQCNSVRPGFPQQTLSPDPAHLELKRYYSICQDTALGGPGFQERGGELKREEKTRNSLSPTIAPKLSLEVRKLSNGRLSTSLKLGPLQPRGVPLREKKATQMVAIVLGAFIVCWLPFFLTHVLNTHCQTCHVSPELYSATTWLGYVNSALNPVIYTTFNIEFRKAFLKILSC
as §4, with “algorithm. The single site competition analysis equation used was y=A+((B−A)/(1+((x/C)D))), where y is the % specific binding, A is the minimum y, B is the maximum y, C is the IC50, x is the log 10 of the concentration of the competing compound and D is the slope of the curve (the Hill Coefficient).” for “algorithm.”

Another assay concerns the target human 5-HT2A receptor (Homo sapiens (Human), UniProt P28223). Kind of assay: Radioligand binding assay, [3H]-ketanserin, human 5-HT2A receptor. Here is the method:
as §1, §2, §3
as §4, with “algorithm. The single site competition analysis equation used was y=A+((B−A)/(1+((x/C)D))), where y is the % specific binding, A is the minimum y, B is the maximum y, C is the IC50, x is the log 10 of the concentration of the competing compound and D is the slope of the curve (the Hill Coefficient).” for “algorithm.”

Setting [1] is: membranes of HEK293 EBNA cells expressing human 5-HT2A, 1.1 nM [3H]-ketanserin.

Molecules are shown by their SMILES. Where two headings read alike, the source gives them in different places.

For 19 compounds, Ki results are on record in patent US8586579B2, “Anellated pyridine compounds” (Hoffmann-La Roche Inc., priority 2010, dated 2013).

human 5-HT2A receptor, sequence (P28223 whole entry): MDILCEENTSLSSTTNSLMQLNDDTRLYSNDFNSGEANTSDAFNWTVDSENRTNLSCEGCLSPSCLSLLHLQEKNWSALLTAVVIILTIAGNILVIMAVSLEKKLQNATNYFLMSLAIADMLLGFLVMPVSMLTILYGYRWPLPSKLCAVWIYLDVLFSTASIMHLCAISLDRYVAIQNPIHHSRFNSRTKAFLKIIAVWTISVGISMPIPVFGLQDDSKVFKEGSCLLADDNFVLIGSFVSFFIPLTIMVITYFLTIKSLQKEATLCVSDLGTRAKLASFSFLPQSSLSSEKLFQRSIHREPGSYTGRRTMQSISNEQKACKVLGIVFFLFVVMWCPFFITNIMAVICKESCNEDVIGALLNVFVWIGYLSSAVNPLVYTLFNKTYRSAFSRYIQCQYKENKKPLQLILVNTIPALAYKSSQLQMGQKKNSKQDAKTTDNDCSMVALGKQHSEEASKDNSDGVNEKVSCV
human D2 receptor, sequence (P14416 whole entry): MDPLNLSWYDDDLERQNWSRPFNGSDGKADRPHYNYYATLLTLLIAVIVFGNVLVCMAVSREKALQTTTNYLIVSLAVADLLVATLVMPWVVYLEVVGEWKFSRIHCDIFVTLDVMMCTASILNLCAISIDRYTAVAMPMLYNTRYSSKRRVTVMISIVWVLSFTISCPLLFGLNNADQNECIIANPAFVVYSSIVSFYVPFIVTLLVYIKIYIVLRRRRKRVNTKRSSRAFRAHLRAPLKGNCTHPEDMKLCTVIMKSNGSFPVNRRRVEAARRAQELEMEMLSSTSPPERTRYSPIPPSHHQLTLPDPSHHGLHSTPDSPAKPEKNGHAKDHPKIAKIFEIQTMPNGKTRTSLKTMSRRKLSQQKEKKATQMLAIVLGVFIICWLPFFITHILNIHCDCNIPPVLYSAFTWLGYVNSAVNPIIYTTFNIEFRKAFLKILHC

Take `O=C(CC1CCOCC1)N[C@H]1CC[C@H](CCN2CCN(c3nccc4occc34)CC2)CC1` [Example 10, N-{trans-4-[2-(4-Furo[3,2-c]pyridin-4-yl-piperazin-1-yl)-ethyl]-cyclohexyl}-2-(tetrahydro-pyran-4-yl)-acetamide]: the values for the Ki on human D2 receptor, at human D3 receptor and on human 5-HT2A receptor (setting [1]) were 683 nM, 30.3 nM and 6.1 nM, respectively.
`O=C(N[C@H]1CC[C@H](CCN2CCN(c3nccc4occc34)CC2)CC1)C1CCOCC1` [Example 11, Tetrahydro-pyran-4-carboxylic acid {trans-4-[2-(4-furo[3,2-c]pyridin-4-yl-piperazin-1-yl)-ethyl]-cyclohexyl}-amide]: the Ki at human D2 receptor stood at 515 nM; on human D3 receptor it was 55.7 nM; at human 5-HT2A receptor (setting [1]), 2.9 nM.
`CCOCC(=O)N[C@H]1CC[C@H](CCN2CCN(c3nccc4occc34)CC2)CC1` [Example 12, 2-Ethoxy-N-{trans-4-[2-(4-furo[3,2-c]pyridin-4-yl-piperazin-1-yl)-ethyl]-cyclohexyl}-acetamide]: the Ki at human D2 receptor stood at 996 nM; on human D3 receptor, 150 nM; on human 5-HT2A receptor (setting [1]) it was 7.4 nM.
In the case of `O=C(N[C@H]1CC[C@H](CCN2CCN(c3nccc4occc34)CC2)CC1)C1CC1` [Example 13, Cyclopropanecarboxylic acid {trans-4-[2-(4-furo[3,2-c]pyridin-4-yl-piperazin-1-yl)-ethyl]-cyclohexyl}-amide], the Ki at human D2 receptor was found to be 261 nM; on human D3 receptor it was 21.8 nM; on human 5-HT2A receptor (setting [1]) it was 4.4 nM.
With `CS(=O)(=O)N[C@H]1CC[C@H](CCN2CCN(c3nccc4occc34)CC2)CC1` [Example 14, N-{trans-4-[2-(4-Furo[3,2-c]pyridin-4-yl-piperazin-1-yl)-ethyl}-cyclohexyl]-methanesulfonamide], the Ki on human D2 receptor worked out at 866 nM; at human D3 receptor, 34.1 nM; at human 5-HT2A receptor (setting [1]), 6.8 nM.
As to `CC(=O)N[C@H]1CC[C@H](CCN2CCN(c3nccc4sccc34)CC2)CC1` [Example 15, N-{trans-4-[2-(4-Thieno[3,2-c]pyridin-4-yl-piperazin-1-yl)-ethyl]-cyclohexyl}-acetamide], the Ki is 119 nM on human D2 receptor, 1.9 nM on human D3 receptor and 3.3 nM at human 5-HT2A receptor.
In the case of `CCS(=O)(=O)N[C@H]1CC[C@H](CCN2CCN(c3nccc4occc34)CC2)CC1` [Example 16, Ethanesulfonic acid {trans-4-[2-(4-furo[3,2-c]pyridin-4-yl-piperazin-1-yl)-ethyl]-cyclohexyl}-amide], the Ki at human D2 receptor is 780 nM; on human D3 receptor it was 30.6 nM; at human 5-HT2A receptor (setting [1]), 8.5 nM.
With `CN(C)S(=O)(=O)N[C@H]1CC[C@H](CCN2CCN(c3nccc4occc34)CC2)CC1` [Example 17, N′-(trans-4{[4-(furo[3,2-c]pyridin-4-yl)-piperazin-1-yl]-ethyl}cyclohexyl)-N,N-dimethylsulfamide], the results for the Ki on human D2 receptor, at human D3 receptor and on human 5-HT2A receptor (setting [1]) were 539 nM, 33 nM and 5.3 nM, respectively.
With `CCC(=O)N[C@H]1CC[C@H](CCN2CCN(c3nccc4sccc34)CC2)CC1` [Example 18, N-{trans-4-[2-(4-Thieno[3,2-c]pyridin-4-yl-piperazin-1-yl)-ethyl]-cyclohexyl}-propionamide], the inhibition constant Ki at human D2 receptor stood at 163 nM; at human D3 receptor, 1.6 nM; at human 5-HT2A receptor (setting [1]) it was 2.6 nM.
In the case of `COCCC(=O)N[C@H]1CC[C@H](CCN2CCN(c3nccc4sccc34)CC2)CC1` [Example 19, 3-Methoxy-N-{trans-4-[2-(4-thieno[3,2-c]pyridin-4-yl-piperazin-1-yl)-ethyl]-cyclohexyl}-propionamide], the inhibitory constant (Ki) turned out to be 305 nM on human D2 receptor, 1.9 nM at human D3 receptor and 3.5 nM at human 5-HT2A receptor.
Regarding `CO[C@H]1CC[C@H](CC(=O)N[C@H]2CC[C@H](CCN3CCN(c4nccc5sccc45)CC3)CC2)CC1` [Example 20, 2-(trans-4-Methoxy-cyclohexyl)-N-{trans-4-[2-(4-thieno[3,2-c]pyridin-4-yl-piperazin-1-yl)-ethyl]-cyclohexyl}-acetamide], the Ki at human D2 receptor was found to be 302 nM; at human D3 receptor, 3 nM; on human 5-HT2A receptor (setting [1]), 2.5 nM.
On to `COCC(=O)N[C@H]1CC[C@H](CCN2CCN(c3nccc4sccc34)CC2)CC1` [Example 22, 2-Methoxy-N-{trans-4-[2-(4-thieno[3,2-c]pyridin-4-yl-piperazin-1-yl)-ethyl]-cyclohexyl}-acetamide], for which the Ki on human D2 receptor turned out to be 220 nM; at human D3 receptor it was 3.2 nM; at human 5-HT2A receptor (setting [1]) it was 2.2 nM.
The matching figures for `O=C(CC1CCOCC1)N[C@H]1CC[C@H](CCN2CCN(c3nccc4sccc34)CC2)CC1` [Example 23, 2-(Tetrahydro-pyran-4-yl)-N-{trans-4-[2-(4-thieno[3,2-c]pyridin-4-yl-piperazin-1-yl)-ethyl]-cyclohexyl}-acetamide]: 144 nM, 2.7 nM and 3 nM.
In the case of `O=C(N[C@H]1CC[C@H](CCN2CCN(c3nccc4sccc34)CC2)CC1)C1CCOCC1` [Example 24, Tetrahydro-pyran-4-carboxylic acid {trans-4-[2-(4-thieno[3,2-c]pyridin-4-yl-piperazin-1-yl)-ethyl]-cyclohexyl}-amide], the Ki at human D2 receptor came to 992 nM; on human D3 receptor, 3.6 nM; at human 5-HT2A receptor it was 1.7 nM.
For `CO[C@@H]1CC[C@@H](CC(=O)N[C@H]2CC[C@H](CCN3CCN(c4nccc5sccc45)CC3)CC2)C1` [Example 25, 2-((1R,3R)-3-Methoxy-cyclopentyl)-N-{trans-4-[2-(4-thieno[3,2-c]pyridin-4-yl-piperazin-1-yl)-ethyl]-cyclohexyl}-acetamide], the Ki on human D2 receptor is 234 nM; at human D3 receptor, 2.7 nM; at human 5-HT2A receptor (setting [1]) it was 4.9 nM.
With `CO[C@H]1CC[C@H](CC(=O)N[C@H]2CC[C@H](CCN3CCN(c4nccc5sccc45)CC3)CC2)C1` [Example 26, 2-((1S,3S)-3-Methoxy-cyclopentyl)-N-{trans-4-[2-(4-thieno[3,2-c]pyridin-4-yl-piperazin-1-yl)-ethyl]-cyclohexyl}-acetamide], the Ki on human D2 receptor came out at 246 nM; on human D3 receptor, 3 nM; on human 5-HT2A receptor (setting [1]) it was 4.3 nM.
Consider `O=C(CO)N[C@H]1CC[C@H](CCN2CCN(c3nccc4sccc34)CC2)CC1` [Example 27, 2-Hydroxy-N-{trans-4-[2-(4-thieno[3,2-c]pyridin-4-yl-piperazin-1-yl)-ethyl]-cyclohexyl}-acetamide], for which the Ki on human D2 receptor is 218 nM; on human D3 receptor it was 1.4 nM; on human 5-HT2A receptor (setting [1]), 1.4 nM.
Regarding `O=C(C[C@H]1CC[C@H](O)CC1)N[C@H]1CC[C@H](CCN2CCN(c3nccc4sccc34)CC2)CC1` [Example 28, 2-(trans-4-Hydroxy-cyclohexyl)-N-{trans-4-[2-(4-thieno[3,2-c]pyridin-4-yl-piperazin-1-yl)-ethyl]-cyclohexyl}-acetamide], the Ki at human D2 receptor was 392 nM; on human D3 receptor, 6 nM; at human 5-HT2A receptor (setting [1]), 4 nM.
In the same order, the values of `O=C(N[C@H]1CC[C@H](CCN2CCN(c3nccc4occc34)CC2)CC1)c1ccnc2ccccc12` [Example 29, Quinoline-4-carboxylic acid {trans-4-[2-(4-furo[3,2-c]pyridin-4-yl-piperazin-1-yl)-ethyl]-cyclohexyl}-amide] are 461 nM, 23.2 nM and 5.3 nM.

The term Ki denotes the equilibrium dissociation constant of an inhibitor or competing ligand from its target.
